Test results: US20040152903A1, “6-chloro-3-pyridylmethylpropylamine derivatives, preparation process thereof and bactericides” (priority 2004, published 2004)

Tests used:
cucumber powdery mildew = assay: Test of control effect on cucumber powdery mildew; type: in vivo; conditions: wettable powder 100 mg/l, 100 liters/10 a, cucumber (Sagamihanpakufushinari), examined 9th to 14th day after inoculation
Protocol: (Test of Control Effect on Cucumber Powdery Mildew) The wettable powders formulated by using each of the compounds I-1 to 27 according to the present invention and the comparative compounds (a) to (d), (m-1) and (m-3) were each diluted and suspended with water to a predetermined concentration (100 mg/l), the suspension was sprinkled over the first to the second leaf period cucumbers (variety: “[…]”) cultivated by using a square plastic pot (size: 6.4 cm×6.4 cm) in a rate of 100 liters/10 a (ares). After the sprinkled leaves were air-dried, the spores were inoculated over the leaves by sprinkling the same with a brush from an infected leaf, a disease was contracted in a glass house (temperature: 20 to 24° C., relative humidity: 20 to 70 RH). On the 9th to 14th day after the inoculation, the infection degree was examined according to the following scale and the control value of each compound was calculated by the following calculation equation 2: (Examination Scale) [table]

wheat powdery mildew [1] = assay: Test of control effect on wheat powdery mildew; type: in vivo; design: Control Value: scale not given here; conditions: wettable powder 125 mg/l, 100 liters/10 a, wheat seedlings (Nourin 64), examined 9th to 14th day after inoculation
Protocol: (Test of Control Effect on Wheat Powdery Mildew) Wettable powders were prepared from compounds of the present invention I-1 to I-27 and comparative compounds (a) to (d), (m-1) and (m-3). The obtained wettable powder was diluted and suspended with water to provide the predetermined concentration (125 mg/l), and was sprinkled onto seedlings of wheat (variety: “Nourin 64”) at the first to the second leaf period which were cultivated using square plastic pots (size: 6.4 cm×6.4 cm) in a rate of 100 liters/10 a (ares). After drying the sprinkled leaves with air, a suspension of wheat powdery mildew spores taken from infected leaves was inoculated by spraying onto the sprinkled leaves. They were supervised in a green house (temperature: 20 to 24° C., relative humidity: 20 to 70 RH). On the 9th to 14th day after the inoculation, the infection degree was examined according to the following scale and the control value of each compound was calculated by the following calculation equation 1. [table]

wheat powdery mildew [2] = assay: Permeable mobility fungicidal effect test in leaf section of wheat powdery mildew; type: in vivo; conditions: length of non-contracted area relative to compound (m-2); 200 mg/l, 0.5 μl applied to wheat leaf (Abukumawase)
Protocol: (Permeable Mobility Fungicidal Effect Test in Leaf Section of Wheat Powdery Mildew) In the test example 4, permeable mobility fungicidal effect test was performed on the leaf section of wheat powdery mildew with regard to the compounds I-1 to 27 according to the present invention and the comparative compounds (a) to (d), and (m-1) to (m-3) with the method described later. <Test Method> The compound in the form of a wettable powder obtained by Formulation 2 or the like was diluted and suspended with water to a predetermined concentration (200 mg/l), and 0.5 μl of the suspension was applied to a 2 to 3 cm leaf portion from the root of the three leaves of the 4th to 4.5th leaf period wheat (variety: Abukumawase) cultured by using a square plastic pot (size: 6.4 cm×6.4 cm). After these wheat leaves were subject to still standing in a glass house (temperature: 20 to 24° C., relative humidity: 20 to 70 RH) for one day, the spores of wheat powdery mildew were inoculated over the leaves by sprinkling the same with a brush from an infected leaf, a disease was contracted in the same glass house. The length of a non-contracted area generated from the applied portion to the direction of the leaf top was measured, and a relative mobility to the compound (m-2) was calculated with the following calculation […] by using the comparative compound (m-2) as a standard compound. Relative mobility=(Length of non-contracted area in each chemical section (cm)/Length of non-contracted area of compound (m-2) (cm)) (Equation 4)

Septoria tritici = assay: Antifungal activity test (PDA plate, hypha extension inhibition); type: cell-based; conditions: 100 ppm in PDA culture medium
Protocol: (§1) (Antifungal Activity Test against Various Pathogenic Fungi) For each of the compounds I-1 to 27 of the present invention and the comparative compounds (a) to (d), (m-1) and (m-3), 20 mg was weighed and dissolved in 2 ml of dimethylsulfoxide, and a double dilution row in 10 steps was prepared by further using dimethylsulfoxide. A 0.6 ml portion of these solutions was each added to 60 ml of a PDA culture medium (potato-dextrose-agar culture medium) at about 60° C., they were well mixed in a 100 ml Erlenmeyer flask, the solution was poured into a schale and was solidified, the plate culture media containing the compounds according to the present invention with final concentrations of 100, 50.0, 25.0, 12.5, 6.3, 3.2, 1.6, 0.8, 0.4 and 0.2 mg/l were prepared. On the other hand, the specimen bacteria cultured on the plate culture media beforehand was punched by a 4 mm diameter cork borer, and was inoculated on the plate culture media containing the aforementioned chemicals. After the inoculation, the bacteria were cultured at the optimum growth temperature of each bacterium for 1 to 7 days (for this optimum growth temperature, LIST OF CULTURES 1996 Microorganisms 10th edition published by Fermentation Research Institute (Foundation) can be referred to.), and the growth of the bacteria was measured by the diameter of a colony. […] R=100(dc−dt)/dc (Equation 3) [wherein each symbol is shown as follows: R=Hypha extension inhibition rate (%), dc=Diameter of colony on no-treated plate, dt=Diameter of colony on chemical-treated plate.] The results obtained above was evaluated in 5 steps in accordance with the following examination scale. <Growth Inhibition> 5: Hypha extension inhibition rate of 90% or more 4: Hypha extension inhibition rate of from 70% to less than 90% 3: […] 2: […] In addition, the abbreviations in Table 10 are as follows: S.t: Septoria tritici

Botrytis cinerea = assay: as above; type: cell-based; conditions: 1.6 ppm in PDA culture medium
Protocol: as §1, with “B.c: Botrytis cinerea” for “S.t: Septoria tritici”

Leptosphaeria nodorum = assay: as above; type: cell-based; conditions: 0.8 ppm in PDA culture medium
Protocol: as §1, with “L.n: Leptosphaeria nodorum” for “S.t: Septoria tritici”

Row | Structure (SMILES) | Control Value (cucumber powdery mildew) | Control Value (wheat powdery mildew [1]) | Relative Mobility (wheat powdery mildew [2]) | Growth Inhibition S.t (100) (Septoria tritici) | Growth Inhibition B.c (1.6) (Botrytis cinerea) | Growth Inhibition L.n (0.8) (Leptosphaeria nodorum)
1 | CC(Cc1ccc(C(F)(F)F)cc1F)CN(C)Cc1ccc(Cl)nc1 (stereo not shown) [Compound I-8] | 100 | 100 | 5 | 4 (Hypha extension inhibition rate of from 70% to less than 90%) | 4 (Hypha extension inhibition rate of from 70% to less than 90%) | 
2 | CC(Cc1ccc(F)c(OC(F)(F)F)c1)CN(C)Cc1ccc(Cl)nc1 (stereo not shown) [Compound I-16] | 100 | 100 | 9 |  | 4 (Hypha extension inhibition rate of from 70% to less than 90%) | 5 (Hypha extension inhibition rate of 90% or more)
